Laboratory results from PMC2556205 (Journal of medicinal chemistry, 2008).
One block for each molecule: values may come before it.

Tests used:
[1] = target: T1, purified recombinant rat FAAH (Rattus norvegicus, UniProt P97612); experiment: FAAH inhibition assay, 14C-oleamide hydrolysis, Dixon plot; assay type: biochemical; conditions: for FAAH inhibition (in words): pH 9 assay conditions
T1 sequence (P97612 30-579 limits assumed): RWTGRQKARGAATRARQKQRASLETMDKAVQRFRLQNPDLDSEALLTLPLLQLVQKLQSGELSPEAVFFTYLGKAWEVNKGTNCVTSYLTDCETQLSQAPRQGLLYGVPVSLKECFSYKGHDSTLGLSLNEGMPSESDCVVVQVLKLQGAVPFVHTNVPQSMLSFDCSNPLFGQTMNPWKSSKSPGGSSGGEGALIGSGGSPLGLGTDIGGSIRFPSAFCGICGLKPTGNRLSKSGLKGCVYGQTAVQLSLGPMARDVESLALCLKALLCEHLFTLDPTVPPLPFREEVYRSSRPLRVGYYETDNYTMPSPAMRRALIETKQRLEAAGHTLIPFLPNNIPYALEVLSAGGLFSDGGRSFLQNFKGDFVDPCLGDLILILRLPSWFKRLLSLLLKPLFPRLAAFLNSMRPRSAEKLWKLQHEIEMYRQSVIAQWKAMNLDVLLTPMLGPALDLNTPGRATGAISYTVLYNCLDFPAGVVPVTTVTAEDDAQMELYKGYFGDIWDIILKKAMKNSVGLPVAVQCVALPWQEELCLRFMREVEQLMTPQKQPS

[2] = Cerep assay profiling; cited from earlier work
[3] = test system: cannabinoid (CB1) receptor; conditions: cited from earlier work
[4] = test system: cannabinoid (CB2) receptor; conditions: cited from earlier work
[5] = test system: vanilloid (TRP) receptors; conditions: cited from earlier work
P450 3A4 = conditions: cited from earlier work
P450 2C9 = conditions: cited from earlier work
P450 2D6 = conditions: cited from earlier work
[6] = test system: human ether-a-go-go related gene (hERG); conditions: cited from earlier work
tail flick assay = conditions: 10–20 mg/kg, i.p.; cited from earlier work
hot plate assay = conditions: 10–20 mg/kg, i.p.; cited from earlier work
[7] = test system: formalin test of noxious chemical pain; conditions: 1st and 2nd phase; 10–20 mg/kg, i.p.; cited from earlier work
[8] = test system: mild thermal injury (MTI) model of peripheral pain; conditions: 10–20 mg/kg, i.p.; cited from earlier work
[9] = test system: spinal nerve ligation (SNL) model of neuropathic pain; conditions: 10–20 mg/kg, i.p.; cited from earlier work
FAAH knockout mice = conditions: cited from earlier work
[10] = test system: endogenous anandamide levels; conditions: cited from earlier work
[11] = target: T1, purified recombinant rat FAAH; conditions: cited from earlier work

Compound: Cn1nnc(C(=O)CCCCCCc2ccccc2)n1 [19a]
FAAH inhibition (in words) [1]: displayed FAAH inhibition at levels consistent with this series

Compound: Cn1nnnc1C(=O)CCCCCCc1ccccc1 [19b]
FAAH inhibition (in words) [1]: displayed FAAH inhibition at levels consistent with this series

Compound: O=C(CCCCCCc1ccccc1)c1ncc(-c2ccccn2)o1 [compound 2]
offsite target activity [2]: lack significant offsite target activity | CB1 receptor binding [3]: does not bind | CB2 receptor binding [4]: does not bind | vanilloid (TRP) receptor binding [5]: does not bind | inhibition of P450 3A4 (P450 3A4): does not significantly inhibit | inhibition of P450 2C9 (P450 2C9): does not significantly inhibit | inhibition of P450 2D6 (P450 2D6): does not significantly inhibit | inhibition of hERG [6]: does not significantly inhibit | analgesic activity, tail flick assay (tail flick assay): analgesic activity | analgesic activity, hot plate assay (hot plate assay): analgesic activity | analgesic activity, formalin test [7]: analgesic activity | analgesic activity, MTI model [8]: analgesic activity | analgesic activity, SNL model [9]: analgesic activity | analgesia in FAAH knockout mice (FAAH knockout mice): ineffective at promoting analgesia | endogenous anandamide levels [10]: increases endogenous anandamide levels | mode of inhibition (Lineweaver–Burk analysis) [11]: reversible, competitive inhibition

loss of FAAH inhibition ([1]; oxazole isomer, location of the oxazole nitrogen atom switched, compared with 2): > 4000 fold
Compound: O=C(CCCCCCc1ccccc1)c1cnc(-c2ccccn2)o1 [compound 6]
